{"source": "paper PMC11645656", "about": "“MRGPRX4 mediates phospho-drug associated pruritus in a humanized mouse model” (Science translational medicine, 2024)", "assay_type_in_all_cases": "cell-based", "key": {"MRGPRX4 R86A": {"biological_target": "T1, MRGPRX4 R86A (Homo sapiens, UniProt Q96LA9, L83S/R86A)", "T1 construct": "expressed in transfected cells; host or cells: HEK293T, transient", "T1 sequence (Q96LA9 whole entry L83S/R86A)": "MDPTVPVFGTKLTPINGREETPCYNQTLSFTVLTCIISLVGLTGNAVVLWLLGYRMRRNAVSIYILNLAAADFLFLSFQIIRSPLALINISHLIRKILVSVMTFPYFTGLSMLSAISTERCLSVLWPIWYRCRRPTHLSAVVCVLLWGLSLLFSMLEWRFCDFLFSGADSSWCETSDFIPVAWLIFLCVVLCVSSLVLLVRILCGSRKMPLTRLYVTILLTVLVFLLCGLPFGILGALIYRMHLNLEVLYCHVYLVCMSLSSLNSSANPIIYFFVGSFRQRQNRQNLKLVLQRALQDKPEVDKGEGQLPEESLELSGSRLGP", "experiment": "Calcium mobilization assay (FLIPR), MRGPRX4 R86A mutant", "description": "(§1) Fig. 3. […] (A) Cryo-EM density map of MRGPRX4-Gq in complex with fospropofol. (B) The density map of fospropofol and R82 of MRGPRX4. (C and D) Key molecular interactions between fospropofol and the hydrophilic (C) and hydrophobic (D) part of the agonist binding pocket of MRGPRX4. Amino acid residues interacting with fospropofol are shown as sticks. Hydrogen bond is shown as cyan dashed lines. […] Data are from at least three independent experiments, each performed in triplicate, and reported as the mean ± SEM. (E) and (F) were collected from the same sets of experiments.\n(§2) To generate murine Mrgprs expressing cells, HEK293T cells (ATCC) were seeded on poly-D-lysine coated 96 well plate at 25,000 cells per well one day prior to transfection. HEK293T cells were transiently co-transfected with the mammalian expression plasmids carrying cDNA encoding the murine Mrgpr genes and plasmid inserted with cDNA encoding murine α-subunit of the heterotrimeric G15 protein (Gα15) in triplicates using Lipofectamine LTX reagents (Thermo Scientific). To generate WT, S83L, and alanine mutant MRGPRX4-expressing cells, HEK293T cells were seeded on poly-D-lysine coated 384 well plate at 12,000 cells per well one day prior to transfection. […]"}, "MRGPRX4 R95A": {"biological_target": "T2, MRGPRX4 R95A (Homo sapiens, UniProt Q96LA9, L83S/R95A)", "T2 construct": "expressed in transfected cells; host or cells: HEK293T, transient", "T2 sequence (Q96LA9 whole entry L83S/R95A)": "as the sequence (Q96LA9 whole entry L83S/R86A) above, with A86R, R95A counted along it", "experiment": "Calcium mobilization assay (FLIPR), MRGPRX4 R95A mutant", "description": "as §1, §2"}, "MRGPRX4 Y254A": {"biological_target": "T3, MRGPRX4 Y254A (Homo sapiens, UniProt Q96LA9, L83S/Y254A)", "T3 construct": "expressed in transfected cells; host or cells: HEK293T, transient", "T3 sequence (Q96LA9 whole entry L83S/Y254A)": "as the sequence (Q96LA9 whole entry L83S/R86A) above, with A86R, Y254A counted along it", "experiment": "Calcium mobilization assay (FLIPR), MRGPRX4 Y254A mutant", "details": "for Calcium mobilization response, dose-response replicate data (Fig. 3E and 3F): Y254A", "description": "as §1\n(§3) To generate murine Mrgprs expressing cells, HEK293T cells (ATCC) were seeded on poly-D-lysine coated 96 well plate at 25,000 cells per well one day prior to transfection. HEK293T cells were transiently co-transfected with the mammalian expression plasmids carrying cDNA encoding the murine Mrgpr genes and plasmid inserted with cDNA encoding murine α-subunit of the heterotrimeric G15 protein (Gα15) in triplicates using Lipofectamine LTX reagents (Thermo Scientific). To generate WT, S83L, and alanine mutant MRGPRX4-expressing cells, HEK293T cells were seeded on poly-D-lysine coated 384 well plate at 12,000 cells per well one day prior to transfection. Mammalian expression plasmids pLX304 (vector from Addgene) carrying different MRGPRX4 coding sequences were transiently transfected into HEK293T cells in triplicates with Lipofectamine LTX reagents (Thermo Scientific). Intracellular calcium mobilization assays were performed after one day of transfection. Murine Mrgprs tested include Mrgpra1, Mrgpra2a, Mrgpra2b, Mrgpra3, Mrgpra4, Mrgpra6, Mrgpra9, Mrgpra10, Mrgpra11, Mrgpra12, Mrgpra14, Mrgprb5, Mrgprb6, Mrgprb10, Mrgprb11, and Mrgprc11. WT and mutant MRGPRX4 constructs tested include WT, S83L, R82A, R86A, R95A, W158A, Y250A, and Y254A.\nTo generate MRGPRX4 mutant constructs, site-directed mutagenesis was performed using Q5® Site-Directed Mutagenesis Kit (New England Biolabs). The primers were designed by the NEBaseChanger tool, with forward primers spanning designated mutated sequence corresponding to the desired amino acid substitutions. The plasmids with WT MRGPRX4 sequence served as the templates for polymerase chain reaction (PCR) amplification with Q5 high-fidelity polymerase and respective primer pairs according to the manufacturer’s conditions. Then, the linear PCR products underwent phosphorylation, ligation, and simultaneous degradation of template DNA by incubating them with a KLD enzyme mix consisting of T4 polynucleotide kinase, T4 DNA ligase, and DpnI at room temperature for 5 min. Subsequently, the mutated circular plasmids were transformed into NEB 5-alpha competent E. coli by heat-shock method, and the successfully transformed bacteria were selected on LB plates with selection antibiotics. The next day, the transformant colonies were picked, expanded in LB broth containing selection antibiotics overnight. Plasmids were isolated using QIAprep Spin Miniprep Kit (Qiagen) and subjected to sequencing to confirm the mutation."}, "MRGPRX4 S83L (L83)": {"biological_target": "MRGPRX4 S83L (L83) (Homo sapiens, UniProt Q96LA9)", "sequence (Q96LA9 whole entry, stated change not applied)": "as the sequence (Q96LA9 whole entry L83S/R86A) above, with S83L, A86R counted along it", "experiment": "Calcium mobilization assay (FLIPR), S83L MRGPRX4 transiently expressed in HEK293T cells", "set-up": "expressed in transfected cells; host or cells: HEK293T, transient", "details": "for Calcium mobilization response (Fig. 4D dose-response): each cell one replicate; for EC50: Fig. 4E, unit not in the head, taken from Concentration (M) of the sheet and pEC50 [M] of Fig. 4E", "description": "Fig. 4. […] Hydrogen bond is shown as cyan dashed lines. […] Data are from three independent experiments, performed in triplicate. (E) pEC50 plots of various agonists toward S83- and L83-MRGPRX4 through calcium mobilization assay. […] Each data point represents an independent experiment, performed in triplicate. The extra sum-of-square F test was used to examine the difference in EC50 values. One-sided t-test was used for nateglinide. *p< 0.05, **p< 0.01 and ***p< 0.001. ns = no statistical significance. Both (D) and (E) are reported as the mean ± SEM. N.D.= no detectable response ≤ 100 μM.\nHEK293 cells and MRGPRX4 stably expressed HEK293 cells were seeded in 100 μl culture media on 96-well plates at a density of 40,000 cells per well and incubated overnight. The next day, the media were replaced with a dye-loading solution from the FLIPR Calcium 5 assay kit (Molecular Devices), diluted in Hank's Balanced Salt Solution (HBSS) with 20 mM HEPES, pH 7.4. After 1 h of incubation at 37°C, cells were allowed to recover for 10 min in the dark at room temperature prior to performing intracellular calcium mobilization assay in a Flexstation-3 instrument with SoftMax®Pro 7.1 software (Molecular Devices). Serial concentrations of tested drugs were prepared in HBSS/HEPES solution at 3X concentration. […] Compounds were tested in triplicates and the signals were averaged. Responses were determined by subtracting the minimum signal (at the baseline before adding the drug) from the maximum signal (obtained after drug stimulation). Four-parameter logistic (4PL) curve fit was used to plot the dose-response curves. […] Both dose-response curve fitting and EC50s calculation are computed with GraphPad Prism software (version: 6.o or above).\nas §3"}}, "note": "“And” between values parts separate entries of the source, which are not always exact repeats. Equal entries are not always repeated. Where two headings read alike, the source gives them in different places.", "data": [{"smiles": "O=C1NC(c2ccccc2)(c2ccccc2)C(=O)N1COP(=O)(O)O", "note": "[Fosphenytoin]", "values": [{"measurement": "Calcium mobilization response at alanine mutant R86A vs WT", "setting": "MRGPRX4 R86A", "result": "either greatly attenuated or abolished"}, {"measurement": "Calcium mobilization response at alanine mutant R95A vs WT", "setting": "MRGPRX4 R95A", "result": "either greatly attenuated or abolished"}, {"measurement": "Calcium mobilization response at alanine mutant Y254A vs WT", "setting": "MRGPRX4 Y254A", "result": "disrupted calcium mobilization"}, {"measurement": "Calcium mobilization response, dose-response replicate data (Fig. 3E and 3F)", "setting": "MRGPRX4 Y254A; concentration 188 pM", "result": "6.602 and -1.3205 and -9.574 and 20.2858 and 13.0936 and 9.774 and -0.7431 and 13.747"}, {"measurement": "Calcium mobilization response, dose-response replicate data (Fig. 3E and 3F)", "setting": "MRGPRX4 Y254A; concentration 565 pM", "result": "20.4677 and 20.7978 and 5.942 and 10.3273 and 0.3688 and 21.3924 and 9.2885 and 13.5241"}, {"measurement": "Calcium mobilization response, dose-response replicate data (Fig. 3E and 3F)", "setting": "MRGPRX4 Y254A; concentration 1.69e-9 M", "result": "15.8459 and 12.5447 and -5.6121 and 28.0313 and 20.8391 and 13.6468 and 20.2118 and 18.4284"}, {"measurement": "Calcium mobilization response, dose-response replicate data (Fig. 3E and 3F)", "setting": "MRGPRX4 Y254A; concentration 5.08e-9 M", "result": "23.7689 and 10.8941 and -0.3301 and 18.6261 and 10.3273 and 20.8391 and 13.5241 and 11.5177"}, {"measurement": "Calcium mobilization response, dose-response replicate data (Fig. 3E and 3F)", "setting": "MRGPRX4 Y254A; concentration 1.52e-8 M", "result": "15.8459 and 17.8267 and 10.564 and 26.3716 and 23.6054 and 16.9663 and 20.8805 and 19.7659"}, {"measurement": "Calcium mobilization response, dose-response replicate data (Fig. 3E and 3F)", "setting": "MRGPRX4 Y254A; concentration 4.57e-8 M", "result": "19.1472 and 14.8556 and 8.913 and 19.1793 and 12.5403 and 20.2858 and 17.7596"}, {"measurement": "Calcium mobilization response, dose-response replicate data (Fig. 3E and 3F)", "setting": "MRGPRX4 Y254A; concentration 1.37e-7 M", "result": "18.8171 and 31.3618 and 9.243 and 27.4781 and 26.9248 and 21.3924 and 19.3201"}, {"measurement": "Calcium mobilization response, dose-response replicate data (Fig. 3E and 3F)", "setting": "MRGPRX4 Y254A; concentration 4.12e-7 M", "result": "18.4869 and 19.4773 and 3.301 and 26.9248 and 12.5403 and 32.4573 and 12.4094"}, {"measurement": "Calcium mobilization response, dose-response replicate data (Fig. 3E and 3F)", "setting": "MRGPRX4 Y254A; concentration 1.23e-6 M", "result": "21.1279 and 18.1568 and 6.272 and 32.4573 and 21.9456 and 23.0521 and 14.8616 and 16.645"}, {"measurement": "Calcium mobilization response, dose-response replicate data (Fig. 3E and 3F)", "setting": "MRGPRX4 Y254A; concentration 3.7e-6 M", "result": "15.5158 and 10.2338 and 7.923 and 31.3509 and 13.0936 and 21.9456 and 13.9699 and 13.3011"}, {"measurement": "Calcium mobilization response, dose-response replicate data (Fig. 3E and 3F)", "setting": "MRGPRX4 Y254A; concentration 1.11e-5 M", "result": "7.923 and -1.651 and 1.651 and 24.1586 and 18.0728 and 21.9456 and 2.8237 and 17.9825"}, {"measurement": "Calcium mobilization response, dose-response replicate data (Fig. 3E and 3F)", "setting": "MRGPRX4 Y254A; concentration 3.33e-5 M", "result": "5.942 and 0.9904 and -9.904 and 16.4131 and 10.3273 and 31.3509 and 7.059 and 4.161"}, {"measurement": "Calcium mobilization response, dose-response replicate data (Fig. 3E and 3F)", "setting": "MRGPRX4 Y254A; concentration 0.0001 M", "result": "1.651 and -5.282 and 12.5403 and 18.0728 and 14.2001 and 2.601 and 7.951"}, {"measurement": "Calcium mobilization response (Fig. 4D dose-response)", "setting": "MRGPRX4 S83L (L83); 5.08e-8 M", "result": 12.9092}, {"measurement": "Calcium mobilization response (Fig. 4D dose-response)", "setting": "MRGPRX4 S83L (L83); 1.52e-7 M", "result": 15.1222}, {"measurement": "Calcium mobilization response (Fig. 4D dose-response)", "setting": "MRGPRX4 S83L (L83); 4.57e-7 M", "result": 12.9092}, {"measurement": "EC50", "setting": "MRGPRX4 S83L (L83); read-out: EC50s (each well represents individual experiment)", "result": "1.09e-05 M and 5.99e-05 M and 1.97e-05 M"}]}, {"smiles": "CC(C)c1cccc(C(C)C)c1OCOP(=O)(O)O", "note": "[Fospropofol]", "values": [{"measurement": "Calcium mobilization response at alanine mutant R86A vs WT", "setting": "MRGPRX4 R86A", "result": "either greatly attenuated or abolished"}, {"measurement": "Calcium mobilization response at alanine mutant R95A vs WT", "setting": "MRGPRX4 R95A", "result": "either greatly attenuated or abolished"}, {"measurement": "Calcium mobilization response at alanine mutant Y254A vs WT", "setting": "MRGPRX4 Y254A", "result": "disrupted calcium mobilization"}, {"measurement": "Calcium mobilization response (Fig. 4D dose-response)", "setting": "MRGPRX4 S83L (L83); 1.52e-8 M", "result": 30.9484}, {"measurement": "Calcium mobilization response (Fig. 4D dose-response)", "setting": "MRGPRX4 S83L (L83); 0.0001 M", "result": 92.0965}, {"measurement": "EC50", "setting": "MRGPRX4 S83L (L83); EC50s (each well represents individual experiment)", "result": "1.79e-07 M and 1.3e-07 M and 1.88e-07 M"}]}]}
